From US12187773B2, “Modified GIP peptide analogues” (Antag Therapeutics ApS, priority 2018, dated 2025)
Like-named read-outs stand apart in the source and are kept apart here. *1 amine or outer side, *2 acyl side, *3 side chain or, on linkers, in order; H or OH if unused. Where a SMILES comes first, the peptide text is derived from it. Side-chain parts run from the residue outwards. [ ]: non-standard residue; d: D form. The star is where a group is joined. C16 diacid = O=C(O)CCCCCCCCCCCCCCC(=O)*; γGlu = O=C(O)[C@H](CCC(=O)[*:2])N[*:1]; pGlu = O=C1CC[C@@H](C(=O)O)N1; AEEA = NCCOCCOCC(=O)O

Columns and labels:
[1] = target: T1, human GIP receptor (Homo sapiens, UniProt P48546); assay: cAMP agonism (CisBio cAMP Dynamic 2 HTRF assay); format: cell-based; details: HEK293, read-out: cAMP agonism, % Efficacy, Table 1C, HEK-293 cells
T1 sequence (P48546 22-466): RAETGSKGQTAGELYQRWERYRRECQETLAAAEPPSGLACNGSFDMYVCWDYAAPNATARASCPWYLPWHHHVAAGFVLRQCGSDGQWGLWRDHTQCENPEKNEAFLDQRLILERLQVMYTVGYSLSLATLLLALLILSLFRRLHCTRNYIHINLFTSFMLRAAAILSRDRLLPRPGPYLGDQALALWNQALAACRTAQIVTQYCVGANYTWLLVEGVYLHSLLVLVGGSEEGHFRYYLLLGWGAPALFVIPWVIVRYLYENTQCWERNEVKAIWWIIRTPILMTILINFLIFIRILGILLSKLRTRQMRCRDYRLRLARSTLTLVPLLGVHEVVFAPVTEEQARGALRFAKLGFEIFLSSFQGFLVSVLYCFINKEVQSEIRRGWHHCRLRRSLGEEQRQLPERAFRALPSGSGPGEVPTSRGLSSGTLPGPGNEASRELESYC
Method: To test for agonistic properties at the GIP receptor, compounds were diluted and added to cells as described above and incubated for 30 min at 37° C. The resulting increase in intracellular cAMP was determined using the CisBio cAMP Dynamic 2 HTRF Assay Kit as described above.

[2] = target: T1, human GIP receptor; assay: cAMP accumulation, antagonism (DiscoveRx HitHunter cAMP XS assay); format: cell-based; set-up: host or cells: COS-7 (transient, calcium phosphate; pCMV-Script vector); details: for cAMP antagonism, % inhib: COS-7 cells, % inhibition of Emax
Summary of the method: (§1)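 cAMP accumulation measured by HitHunter cAMP XS in COS-7 cells transiently expressing human GIP receptor, after 30 min in HBS with 1 mM IBMX at 37 °C. Antagonists preincubated 10 min before GIP giving 50-80% of maximum, then 20 min more; agonist mode used 30 min ligand exposure.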

[3] = target: T1, human GIP receptor; assay: cAMP antagonism (CisBio cAMP Dynamic 2 HTRF assay); format: cell-based; set-up: pCMV-Script vector; details: Table 1C, CisBio, HEK-293 cells; for IC50: cAMP antagonism, nM (IC50), agonist GIP1-42 at EC50
Summary of the method: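 Four-parameter fits of cAMP dose-response gave pIC50. cAMP fall was quantified by HTRF competition, ratio 665/620 nm after 60 min at room temperature, against a cAMP standard curve.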

[4] = target: T1, human GIP receptor; assay: cAMP accumulation, agonism (DiscoveRx HitHunter cAMP XS assay); format: cell-based; set-up: host or cells: COS-7 (transient, calcium phosphate; pCMV-Script vector); details: for cAMP agonism, Emax: Table 1B, DiscoveRx, COS-7 cells
Summary of the method: as §1

[5] = Elimination half-life (T1/2) estimated in Göttingen minipigs; format: in vivo
Method: 2-3 Göttingen minipigs were subcutaneously administered one of the GIP analogues of the present invention (1-10 nmol/kg, total volume 2-6 mL) and blood samples were collected before and up to 432 hours post subcutaneous administration.) from a central venous catheter. The catheter was flushed with saline and heparin between samples. Blood was collected into cold EDTA tubes, centrifuged and plasma was kept at −20° C. pending analyses.
Concentrations of the acylated GIP(3-30)NH2 or GIP(5-30)NH2 analogues in blood samples from Göttingen minipigs were analyzed by RIA. Analogues' immunoreactivity was determined using antiserum Ab95234, Ab95235, Ab95236, a polyclonal in-house antibody raised in rabbits specific for either the mid region of GIP(1-30)NH2 or amidated C-terminus of GIP(3-30)NH2.
In addition to the hormone analysis, blood concentrations of AT374, 380, 382-385, 392-393 were determined by LC/MS performed by Red Glead Discovery AB, Lund, Sweden. The plasma samples were precipitated by addition of 3 parts ethanol followed by thorough mixing. After centrifugation and dilution of the supernatant, the samples were analyzed by LC-MS/MS and compared with a 9-point calibration curve. The calibration curves were prepared in naïve plasma matrix from Göttingen minipigs.

[6] = sc, Table 1B, species not given, unit h, LC/MS in Göttingen minipig plasma for these IDs, subcutaneous 1-10 nmol/kg, read-out: T½ (converted)
[7] = cAMP antagonism, nM (IC50), Table 1B, DiscoveRx, transiently transfected COS-7 cells

CC[C@H](C)[C@H](NC(=O)[C@H](CO)NC(=O)[C@H](Cc1ccc(O)cc1)NC(=O)[C@H](CC(=O)O)NC(=O)[C@H](CO)NC(=O)[C@@H](NC(=O)[C@H](Cc1ccccc1)NC(=O)[C@@H](NC(=O)CNC(=O)[C@@H](N)CCC(=O)O)[C@@H](C)O)[C@@H](C)CC)C(=O)N[C@@H](C)C(=O)N[C@@H](CCSC)C(=O)N[C@@H](CC(=O)O)C(=O)N[C@@H](CCCNC(=N)N)C(=O)N[C@H](C(=O)N[C@@H](CCCCNC(=O)COCCOCCNC(=O)COCCOCCNC(=O)CC[C@H](NC(=O)CCCCCCCCCCCCCCC(=O)O)C(=O)O)C(=O)N[C@@H](CCC(N)=O)C(=O)N[C@@H](CCC(N)=O)C(=O)N[C@@H](CC(=O)O)C(=O)N[C@@H](Cc1ccccc1)C(=O)N[C@H](C(=O)N[C@@H](CC(N)=O)C(=O)N[C@@H](Cc1c[nH]c2ccccc12)C(=O)N[C@@H](CC(C)C)C(=O)N[C@@H](CC(C)C)C(=O)N[C@@H](C)C(=O)N[C@@H](CCC(N)=O)C(=O)N[C@@H](CCCNC(=N)N)C(N)=O)C(C)C)[C@@H](C)CC [AT374] (H-EGTFISDYSIAMDRIK([AEEA-AEEA-γGlu-C16 diacid])QQDFVNWLLAQR-NH2; N-terminus assumed)
Emax [1]: 0% | IC50 ([2]; IC50-value (GIPR antagonism), Examples 1 and 2, values of Tables 1B and 2): 12 nM | cAMP antagonism, % inhib ([2]; Table 1B, DiscoveRx): 100% | cAMP antagonism, % inhib [3]: 86% | IC50 [3]: 17.1 nM | cAMP agonism, Emax [4]: No Agonism | half-life [5, 6]: 14 h

CC[C@H](C)[C@H](NC(=O)[C@H](CO)NC(=O)[C@H](Cc1ccc(O)cc1)NC(=O)[C@H](CC(=O)O)NC(=O)[C@H](CO)NC(=O)[C@@H](NC(=O)[C@H](Cc1ccccc1)NC(=O)[C@@H](NC(=O)CNC(=O)[C@@H]1CCC(=O)N1)[C@@H](C)O)[C@@H](C)CC)C(=O)N[C@@H](C)C(=O)N[C@@H](CCSC)C(=O)N[C@@H](CC(=O)O)C(=O)N[C@@H](CCCNC(=N)N)C(=O)N[C@H](C(=O)N[C@@H](CCCCNC(=O)COCCOCCNC(=O)COCCOCCNC(=O)COCCOCCNC(=O)CC[C@H](NC(=O)CCCCCCCCCCCCCCC(=O)O)C(=O)O)C(=O)N[C@@H](CCC(N)=O)C(=O)N[C@@H](CCC(N)=O)C(=O)N[C@@H](CC(=O)O)C(=O)N[C@@H](Cc1ccccc1)C(=O)N[C@H](C(=O)N[C@@H](CC(N)=O)C(=O)N[C@@H](Cc1c[nH]c2ccccc12)C(=O)N[C@@H](CC(C)C)C(=O)N[C@@H](CC(C)C)C(=O)N[C@@H](C)C(=O)N[C@@H](CCC(N)=O)C(=O)N[C@@H](CCCNC(=N)N)C(N)=O)C(C)C)[C@@H](C)CC [AT380] ([pGlu]GTFISDYSIAMDRIK([AEEA-AEEA-AEEA-γGlu-C16 diacid])QQDFVNWLLAQR-NH2)
Emax [1]: 8% | cAMP antagonism, % inhib ([2]; Table 1B, DiscoveRx): 100% | IC50 [2, 7]: 7 nM | cAMP antagonism, % inhib [3]: 82% | IC50 [3]: 85.8 nM | cAMP agonism, Emax [4]: No Agonism | half-life ([5]; Göttingen, minipig, plasma, subcutaneous, Example 1, read-out: T1/2 (converted)): 20 h | half-life [5, 6]: 20 h

CC[C@H](C)[C@H](NC(=O)[C@H](CO)NC(=O)[C@H](Cc1ccc(O)cc1)NC(=O)[C@H](CC(=O)O)NC(=O)[C@H](CO)NC(=O)[C@@H](NC(=O)[C@H](Cc1ccccc1)NC(=O)[C@@H](NC(=O)CNC(=O)CN)[C@@H](C)O)[C@@H](C)CC)C(=O)N[C@@H](C)C(=O)N[C@@H](CCSC)C(=O)N[C@@H](CC(=O)O)C(=O)N[C@@H](CCCNC(=N)N)C(=O)N[C@H](C(=O)N[C@@H](CCCCNC(=O)COCCOCCNC(=O)COCCOCCNC(=O)CC[C@H](NC(=O)CCCCCCCCCCCCCCC(=O)O)C(=O)O)C(=O)N[C@@H](CCC(N)=O)C(=O)N[C@@H](CCC(N)=O)C(=O)N[C@@H](CC(=O)O)C(=O)N[C@@H](Cc1ccccc1)C(=O)N[C@H](C(=O)N[C@@H](CC(N)=O)C(=O)N[C@@H](Cc1c[nH]c2ccccc12)C(=O)N[C@@H](CC(C)C)C(=O)N[C@@H](CC(C)C)C(=O)N[C@@H](C)C(=O)N[C@@H](CCC(N)=O)C(=O)N[C@@H](CCCNC(=N)N)C(N)=O)C(C)C)[C@@H](C)CC [AT514] (H-GGTFISDYSIAMDRIK([AEEA-AEEA-γGlu-C16 diacid])QQDFVNWLLAQR-NH2; N-terminus assumed)
Emax [1]: 0% | cAMP antagonism, % inhib ([2]; Table 1B, DiscoveRx): 80% | cAMP antagonism, % inhib [3]: 86% | IC50 [3]: 31.6 nM | cAMP agonism, Emax [4]: No Agonism

CC[C@H](C)[C@H](NC(=O)[C@H](CO)NC(=O)[C@H](Cc1ccc(O)cc1)NC(=O)[C@H](CC(=O)O)NC(=O)[C@H](CO)NC(=O)[C@@H](NC(=O)[C@H](Cc1ccccc1)NC(=O)[C@@H](NC(=O)CNC(=O)[C@@H](N)CO)[C@@H](C)O)[C@@H](C)CC)C(=O)N[C@@H](C)C(=O)N[C@@H](CCSC)C(=O)N[C@@H](CC(=O)O)C(=O)N[C@@H](CCCNC(=N)N)C(=O)N[C@H](C(=O)N[C@@H](CCCCNC(=O)COCCOCCNC(=O)COCCOCCNC(=O)CC[C@H](NC(=O)CCCCCCCCCCCCCCC(=O)O)C(=O)O)C(=O)N[C@@H](CCC(N)=O)C(=O)N[C@@H](CCC(N)=O)C(=O)N[C@@H](CC(=O)O)C(=O)N[C@@H](Cc1ccccc1)C(=O)N[C@H](C(=O)N[C@@H](CC(N)=O)C(=O)N[C@@H](Cc1c[nH]c2ccccc12)C(=O)N[C@@H](CC(C)C)C(=O)N[C@@H](CC(C)C)C(=O)N[C@@H](C)C(=O)N[C@@H](CCC(N)=O)C(=O)N[C@@H](CCCNC(=N)N)C(N)=O)C(C)C)[C@@H](C)CC [AT516] (H-SGTFISDYSIAMDRIK([AEEA-AEEA-γGlu-C16 diacid])QQDFVNWLLAQR-NH2; N-terminus assumed)
Emax [1]: 0% | cAMP antagonism, % inhib ([2]; Table 1B, DiscoveRx): 100% | IC50 [2, 7]: 31 nM | cAMP antagonism, % inhib [3]: 88% | cAMP agonism, Emax [4]: No Agonism

CC[C@H](C)[C@H](NC(=O)[C@H](CO)NC(=O)[C@H](Cc1ccc(O)cc1)NC(=O)[C@H](CC(=O)O)NC(=O)[C@H](CO)NC(=O)[C@@H](NC(=O)[C@H](Cc1ccccc1)NC(=O)[C@@H](NC(=O)CNC(=O)[C@@H]1CCCN1)[C@@H](C)O)[C@@H](C)CC)C(=O)N[C@@H](C)C(=O)N[C@@H](CCSC)C(=O)N[C@@H](CC(=O)O)C(=O)N[C@@H](CCCNC(=N)N)C(=O)N[C@H](C(=O)N[C@@H](CCCCNC(=O)COCCOCCNC(=O)COCCOCCNC(=O)CC[C@H](NC(=O)CCCCCCCCCCCCCCC(=O)O)C(=O)O)C(=O)N[C@@H](CCC(N)=O)C(=O)N[C@@H](CCC(N)=O)C(=O)N[C@@H](CC(=O)O)C(=O)N[C@@H](Cc1ccccc1)C(=O)N[C@H](C(=O)N[C@@H](CC(N)=O)C(=O)N[C@@H](Cc1c[nH]c2ccccc12)C(=O)N[C@@H](CC(C)C)C(=O)N[C@@H](CC(C)C)C(=O)N[C@@H](C)C(=O)N[C@@H](CCC(N)=O)C(=O)N[C@@H](CCCNC(=N)N)C(N)=O)C(C)C)[C@@H](C)CC [AT518] (H-PGTFISDYSIAMDRIK([AEEA-AEEA-γGlu-C16 diacid])QQDFVNWLLAQR-NH2; N-terminus assumed)
Emax [1]: 0% | cAMP antagonism, % inhib ([2]; Table 1B, DiscoveRx): 100% | cAMP antagonism, % inhib [3]: 71% | IC50 [3]: 85.8 nM | Emax ([4]; COS-7, read-out: cAMP agonism, Emax): 5%
